Assay results reported in patent US4902699A, “Oxime of 1, 2, 5, 6-tetrahydropyridine compounds their use as medicaments and the compositions containing them” (Roussel Uclaf, priority 1987, dated 1990).
Where a name gives a salt, the structure may show the parent alone. Read-outs that look alike come from different tables or passages of the source.

What was measured:
Acute toxicity, oral = assay: Acute toxicity, oral; design: species or system mice; conditions: mouse, in vivo, mortality during 7 days
Method: The test was carried out on male mice (CD1 Charles Rivers), of 22 to 24 g, having fasted for 16 hours. […] The mortality is noted during the 7 days following the treatment.

[1] = test system: male mice (CD1 Charles RAivers); assay: Variation of the body temperature (duration of action); assay type: in vivo
Method: (§1) The test is carried out on male mice (CD1 Charles RAivers) weighing 25-30 g, having fasted for 6 hours.
The temperature of the body is noted by means of a thermocouple inserted about 1.5 cm in the rectum and connected to an electric temperature recorder. […]
The duration of action of the products is determined, using the doses able to reduce the temperature by 1° to 1.5° C.

Diarrhoeic activity = assay: Diarrhoeic activity; design: species or system mice; conditions: mouse, in vivo; oral route; dose which causes diarrhoea in 50% of the animals; read-out: DE50 (the source's name)
Method: The test is carried out on male mice (CD1 Charles Rivers) weighing […], after fasting for 6 hours. The product dissolved at 5% in methocel is administered by oral route by means of an oesophage probe.
Control animals receive only the excipient.
After treatment, the animals are placed separately in cages of which the base is covered with blotting paper, and they are put under observation for 30, 60, 120 and 180 minutes.
The sheets of absorbent paper are changed after each observation.
The consistency of the feces is evaluated according to the method of Randall and Baruth (Arch. Int. Pharmacodyn. 220, 94, 1976) according to the following scale of values.
1: feces slightly soft, with or without a damp halo
2: feces slightly soft, with a well defined circle of humidity.
3: feces soft with a large circle of humidity.
4: feces without consistency with a very large circle of humidity.
For each product, the dose is noted which causes diarrhoea in 50% of the animals according to the method of Miller and Tainter (Proc. Soc. Exp. Biol. Med., 57, 261, 1944).

[2] = test system: ileum isolated from guinea-pig; assay: Test of ileum isolated from guinea-pig, agonist (contracting) activity; conditions: Cavia porcellus; negative logarithm of the dose which produces 50% of the maximum effect; read-out: pD2 (converted)
Method: Pieces of ileum are removed from guinea-pigs killed by decapitation. The isolated ileum is placed in 10 cm^3 of Tyrode solution at 37° C. and aerated with a mixture of oxygen (95%) and carbon dioxide gas (5%). The contractions due to the products are registered by means of a detector connected to a polygraph. The products to be tested are added at concentrations between 1.10^-3 M and 1.10^-8 M/l.
The products presenting a contracting effect are tested vis-a-vis atropine and hexamethonium in order to establish if the activity is of "muscarine" or "nicotine" type.
The agonist activity is expressed in pD2 (negative logarithm of the dose which produces 50% of the maximum effect).

[3] = test system: male mice (CD1 Charles RAivers); assay: Hypothermic activity; assay type: in vivo; conditions: Mus musculus, read-out: Effective dose (-1° C.)
Method: as §1
The temperature of the body is noted by means of a thermocouple inserted about 1.5 cm in the rectum and connected to an electric temperature recorder.
The products are administered by oral or sub-cutaneous route and the temperatures are noted at the instant 0 and at 30 minutes, 1 hour, 2 hours and 2 and a half hours after treatment.
The degree of hypothermia is evaluated as the difference between the treated animals and the controls, and the dose necessary to reduce the body temperature by 1° C. is noted.

Solubility = assay type: physicochemical

## CON=CC1=CCCN(OC(=O)Nc2ccc(OC)cc2)C1 [Example 16, Methyl ether of 1-paramethoxyphenylaminocarbonyloxy-1,2,5,6-tetrahydropyridin-3-carboxaldehyde oxime]
Acute toxicity, oral
  LD50 at 168 h: 60 mg/kg
[1]; os, 1. mg/kg, 30 min
  Variations of the body temperature: -1.1 °C
[1]; os, 1. mg/kg, 60 min
  Variations of the body temperature: -1.1 °C
[1]; os, 1. mg/kg, 120 min
  Variations of the body temperature: -0.1 °C
[1]; sc, 1. mg/kg, 30 min
  Variations of the body temperature: -1.2 °C
[1]; sc, 1. mg/kg, 60 min
  Variations of the body temperature: -1.5 °C
[1]; sc, 1. mg/kg, 120 min
  Variations of the body temperature: -0.3 °C
[1]; sc, 1. mg/kg, 180 min
  Variations of the body temperature: +0.1 °C
Diarrhoeic activity
  ED50: 6 mg/kg
[2]
  EC50: > 100 µM
[3]; O.R. (oral route)
  ED (-1 C): 0.88 mg/kg
[3]; SC.R (sub-cutaneous route)
  ED (-1 C): 0.78 mg/kg

## CON=CC1=CCCN(O)C1 [Example 1, Hydrochloride of the methyl ether of 1-hydroxy-1,2,5,6-tetrahydropyridin-3-carboxaldehyde oxime]
Acute toxicity, oral
  LD50 at 168 h: 60 mg/kg
[1]; os, 0.25 mg/kg, 30 min
  Variations of the body temperature: -1.4 °C
[1]; os, 0.25 mg/kg, 60 min
  Variations of the body temperature: -1.2 °C
[1]; os, 0.25 mg/kg, 120 min
  Variations of the body temperature: -0.1 °C
[1]; os, 0.25 mg/kg, 180 min
  Variations of the body temperature: -0.1 °C
[1]; sc, 0.25 mg/kg, 30 min
  Variations of the body temperature: -1.4 °C
[1]; sc, 0.25 mg/kg, 60 min
  Variations of the body temperature: -1.1 °C
[1]; sc, 0.25 mg/kg, 120 min
  Variations of the body temperature: -0.1 °C
[1]; sc, 0.25 mg/kg, 180 min
  Variations of the body temperature: -0.1 °C
Diarrhoeic activity
  ED50: 0.5 mg/kg
[2]
  EC50: 4.17 µM
[3]; O.R. (oral route)
  ED (-1 C): 0.19 mg/kg
[3]; SC.R (sub-cutaneous route)
  ED (-1 C): 0.2 mg/kg

## COC(=O)C1=CCCN(C)C1 [Arecoline HBr, reference compound]
[1]; os, 200 mg/kg, 30 min
  Variations of the body temperature: -1.1 °C
[1]; os, 200 mg/kg, 60 min
  Variations of the body temperature: -1.0 °C
[1]; os, 200 mg/kg, 120 min
  Variations of the body temperature: -0.2 °C
[1]; os, 200 mg/kg, 180 min
  Variations of the body temperature: -0.1 °C
[1]; sc, 3.5 mg/kg, 30 min
  Variations of the body temperature: -1.5 °C
[1]; sc, 3.5 mg/kg, 60 min
  Variations of the body temperature: -0.1 °C
[1]; sc, 3.5 mg/kg, 120 min
  Variations of the body temperature: +0.2 °C
[1]; sc, 3.5 mg/kg, 180 min
  Variations of the body temperature: +0.2 °C
[3]; O.R. (oral route)
  ED (-1 C): 194 mg/kg
[3]; SC.R (sub-cutaneous route)
  ED (-1 C): 3 mg/kg

## CON=CC1=CCCN(OC(=O)c2ccccc2)C1 [Example 7, Methyl ether of 1-benzoyloxy-1,2,5,6-tetrahydropyridin-3-carboxaldehyde oxime]
Acute toxicity, oral
  LD50 at 168 h: 90 mg/kg
[1]; os, 0.5 mg/kg, 30 min
  Variations of the body temperature: -1.1 °C
[1]; os, 0.5 mg/kg, 60 min
  Variations of the body temperature: -0.9 °C
[1]; os, 0.5 mg/kg, 180 min
  Variations of the body temperature: +0.1 °C
[1]; sc, 0.25 mg/kg, 30 min
  Variations of the body temperature: -1.2 °C
[1]; sc, 0.25 mg/kg, 60 min
  Variations of the body temperature: -0.9 °C
[1]; sc, 0.25 mg/kg, 180 min
  Variations of the body temperature: +0.1 °C
Diarrhoeic activity
  ED50: 1.5 mg/kg
[2]
  EC50: > 100 µM
[3]; O.R. (oral route)
  ED (-1 C): 0.42 mg/kg
[3]; SC.R (sub-cutaneous route)
  ED (-1 C): 0.21 mg/kg

## CON=CC1=CCCN(OC(=O)Nc2ccccc2)C1 [Example 13, Methyl ether of 1-phenylaminocarbonyloxy 1,2,5,6-tetrahydropyridin-3-carboxaldehyde oxime]
Acute toxicity, oral
  LD50 at 168 h: 250 mg/kg
[1]; os, 1. mg/kg, 30 min
  Variations of the body temperature: -1.4 °C
[1]; os, 1. mg/kg, 60 min
  Variations of the body temperature: -1.1 °C
[1]; os, 1. mg/kg, 120 min
  Variations of the body temperature: -0.1 °C
[1]; os, 1. mg/kg, 180 min
  Variations of the body temperature: +0. °C.
[1]; sc, 0.5 mg/kg, 30 min
  Variations of the body temperature: -1.2 °C
[1]; sc, 0.5 mg/kg, 60 min
  Variations of the body temperature: -1.2 °C
[1]; sc, 0.5 mg/kg, 120 min
  Variations of the body temperature: -0.1 °C
Diarrhoeic activity
  ED50: 5 mg/kg
[2]
  EC50: > 100 µM
[3]; O.R. (oral route)
  ED (-1 C): 0.74 mg/kg
[3]; SC.R (sub-cutaneous route)
  ED (-1 C): 0.43 mg/kg

## CON=CC1=CCCN(OC(=O)Nc2ccc(C(C)C)cc2)C1 [Example 15, Methyl ether of 1-(4-isopropylphenylaminocarbonyloxy) 1,2,5,6-tetrahydropyridin-3-carboxaldehyde oxime]
Acute toxicity, oral
  LD50 at 168 h: 350 mg/kg
[1]; os, 2. mg/kg, 30 min
  Variations of the body temperature: -0.8 °C
[1]; os, 2. mg/kg, 60 min
  Variations of the body temperature: -1.0 °C
[1]; os, 2. mg/kg, 120 min
  Variations of the body temperature: +0. °C.
[1]; os, 2. mg/kg, 180 min
  Variations of the body temperature: +0.1 °C
[1]; sc, 4. mg/kg, 30 min
  Variations of the body temperature: -0.5 °C
[1]; sc, 4. mg/kg, 60 min
  Variations of the body temperature: -1.5 °C
[1]; sc, 4. mg/kg, 120 min
  Variations of the body temperature: -1.5 °C
[1]; sc, 4. mg/kg, 180 min
  Variations of the body temperature: -0.3 °C
Diarrhoeic activity
  ED50: 20 mg/kg
[2]
  EC50: > 100 µM
[3]; O.R. (oral route)
  ED (-1 C): 1.9 mg/kg
[3]; SC.R (sub-cutaneous route)
  ED (-1 C): 2.4 mg/kg

## CON=CC1=CCCN(OC)C1 [Example 2, Hydrochloride of the methyl ether of 1-methoxy-1,2,5,6-tetrahydropyridin-3-carboxaldehyde oxime]
Solubility; 2N HCl
  Solubility in 2N HCl: Soluble
Solubility; 2N NaOH
  Solubility in 2N NaOH: Soluble
Solubility; H2O
  Solubility in water: Soluble

## CON=CC1=CCCN(OC(=O)Nc2ccc(Cl)cc2)C1 [Example 14, Methyl ether of 1-(4-chlorophenylaminocarbonyloxy)-1,2,5,6-tetrahydropyridin-3-carboxaldehyde oxime]
Acute toxicity, oral
  LD50 at 168 h: > 1000 mg/kg
[1]; os, 2.5 mg/kg, 30 min
  Variations of the body temperature: -1.3 °C
[1]; os, 2.5 mg/kg, 60 min
  Variations of the body temperature: -1.5 °C
[1]; os, 2.5 mg/kg, 120 min
  Variations of the body temperature: -0.3 °C
[1]; os, 2.5 mg/kg, 180 min
  Variations of the body temperature: +0.1 °C
[1]; sc, 2.5 mg/kg, 30 min
  Variations of the body temperature: -0.4 °C
[1]; sc, 2.5 mg/kg, 60 min
  Variations of the body temperature: -1.5 °C
[1]; sc, 2.5 mg/kg, 120 min
  Variations of the body temperature: -1.3 °C
[1]; sc, 2.5 mg/kg, 180 min
  Variations of the body temperature: -0.2 °C
Diarrhoeic activity
  ED50: 10 mg/kg
[2]
  EC50: > 100 µM
[3]; O.R. (oral route)
  ED (-1 C): 1.8 mg/kg
[3]; SC.R (sub-cutaneous route)
  ED (-1 C): 1.8 mg/kg

## CCOC(=O)ON1CCC=C(C=NOC)C1 [Example 6, Methyl ether of 1-ethoxy carbonyloxy-1,2,5,6-tetrahydropyridin-3-carboxaldehyde oxime]
Acute toxicity, oral
  LD50 at 168 h: 125 mg/kg
[1]; os, 0.35 mg/kg, 30 min
  Variations of the body temperature: -1.3 °C
[1]; os, 0.35 mg/kg, 60 min
  Variations of the body temperature: -1.1 °C
[1]; os, 0.35 mg/kg, 120 min
  Variations of the body temperature: -0.1 °C
[1]; sc, 0.35 mg/kg, 30 min
  Variations of the body temperature: -1.4 °C
[1]; sc, 0.35 mg/kg, 60 min
  Variations of the body temperature: -1.1 °C
[1]; sc, 0.35 mg/kg, 120 min
  Variations of the body temperature: -0.1 °C
[1]; sc, 0.35 mg/kg, 180 min
  Variations of the body temperature: +0.1 °C
Diarrhoeic activity
  ED50: 0.6 mg/kg
[2]
  EC50: 11.5 µM
[3]; O.R. (oral route)
  ED (-1 C): 0.26 mg/kg
[3]; SC.R (sub-cutaneous route)
  ED (-1 C): 0.24 mg/kg

## CCCNC(=O)ON1CCC=C(C=NOC)C1 [Example 10, Methyl ether of 1-propyl aminocarbonyloxy-1,2,5,6-tetrahydropyridin-3-carboxyaldehyde oxime]
Acute toxicity, oral
  LD50 at 168 h: 125 mg/kg
[1]; os, 1.56 mg/kg, 30 min
  Variations of the body temperature: -1.2 °C
[1]; os, 1.56 mg/kg, 60 min
  Variations of the body temperature: -1.0 °C
[1]; os, 1.56 mg/kg, 120 min
  Variations of the body temperature: -0.1 °C
[1]; os, 1.56 mg/kg, 180 min
  Variations of the body temperature: +0.1 °C
[1]; sc, 1.56 mg/kg, 30 min
  Variations of the body temperature: -1.2 °C
[1]; sc, 1.56 mg/kg, 60 min
  Variations of the body temperature: -1.1 °C
[1]; sc, 1.56 mg/kg, 180 min
  Variations of the body temperature: +0.1 °C
Diarrhoeic activity
  ED50: 20 mg/kg
[2]
  EC50: > 100 µM
[3]; O.R. (oral route)
  ED (-1 C): 1.4 mg/kg
[3]; SC.R (sub-cutaneous route)
  ED (-1 C): 1.3 mg/kg
